Data published in patent publication US11389483B2, “Methods for treating pain” (Duke University, priority 2015, dated 2022).

Legend:
BMSCs = test: Transwell migration (chemotaxis) assay; assay type: cell-based, mice
Experimental: The migratory ability of BMSCs was determined using Transwell plates (Corning Costar, 6.5 mm in diameter with 8 μm pore filters). In brief, 5×10^4 cells in 100 μL, serum-free medium were added into the upper well, and 600 μL, of CXCL12-containing medium was placed in the lower well of a Transwell plate. Following incubation for 5 h (37° C., 100% humidity, 5% CO2 in air), the number of cells that had migrated to the lower side of the filter was counted under a light microscope at ×200 magnification, and the data were presented as the average number of migratory in five randomly-selected fields. Each experiment was performed in triplicate, and the data were averaged for statistical analysis.

CCI mice [1] = test: Two-chamber conditioned place preference test for ongoing pain after CCI; assay type: in vivo; details: clonidine 10 μg i.t.
Description: To test spontaneous/ongoing pain measurement, a single trial conditioning protocol for conditioned place preference (CPP) was used as described in King et al. (Nat. Neurosci. 2009, 12, 1364-1366) and Xu et al. (Ann. Neurol. 2013, 74, 490-495). All mice underwent a 3-day pre-conditioning habituation and animal behavior was video-recorded. […] On the conditioning day, mice received the vehicle (saline) control paired with a randomly chosen chamber in the morning, and then the appropriate treatment (clonidine, 10 μg, i.t.) paired with the other chamber 4 h later. Chamber pairings were counterbalanced. On the test day, 20 h following the afternoon pairing, mice were placed in the CPP box with access to both chambers and the behavior was recorded for 15 min and analyzed by ANY-maze software for chamber preference.

IL-10 = test: ELISA of IL-10 release in BMSCs culture medium; assay type: cell-based, mice; details: TNF 10 ng/mL, 60 min, LPS 100 ng/mL
Experimental: (§1) Primary cultures of BMSCs were obtained from CD-1 donor mice under aseptic conditions. The mice were sacrificed with isoflurane and the both ends of the tibiae and femurs were cut off by scissors. A syringe fitted with 20-gauge needle was inserted into the shaft of the bone, and bone marrow was flushed out with culture medium (modified Eagle's medium containing 10% fetal bovine serum, 2 mM L-glutamine, 100 U/mL penicillin and 100 μg/mL streptomycin, 250 μg/mL Fungizone, all obtained from Gibco). After the centrifuge at 1000 g for 5 min at room temperature, the pellet was resuspended in 2 mL fresh warm culture medium and mechanically dissociated, and the suspension was passed through a 40-μm cell strainer to remove debris. After the centrifuge the cells were resuspended at a concentration of 1×10^6 cells/mL. The cells were then incubated at 37° C. in 5% CO2 in 75 cm2 cell culture flasks or 6-well culture plates. After 24 hours, cells were washed gently with PBS and replaced with fresh culture media. Adherent cells were further cultured with a medium change every 2-3 days until confluence was reached (also see FIG. 11).
Mouse TGF-β1, IL-10, and CXCL12/SDF-1α ELISA kits were purchased from R&D Systems. ELISA was performed using BMSCs culture medium or cell lysate, CSF, and DRG tissue. Cultured cells and DRGs were homogenized in a lysis buffer containing protease and phosphatase inhibitors. […]

TGF-β1 = test: ELISA of TGF-β1 release and expression in BMSCs cultures; assay type: cell-based, mice; details: TNF 10 ng/mL, 60 min, LPS 100 ng/mL
Experimental: Tgfβ1 siRNA (Catalog: J-040652-06), Cxcr4 siRNA (Catalog: J-060184-06) and Non-targeting siRNA (Catalog: D-0018100-01-20) were purchased from Thermo Scientific Dharmacon. SiRNA was dissolved in RNase-free water at 1 μg/μL as stock solution and mixed with transfection reagent polyethyleneimine (PEI, Fermentas) and normal saline before use. Specifically, 1 μg siRNA was dissolved in 3.3 μL of PEI and 66 μL of normal saline (Kawasaki, et al. Nat. Med. 2008, 14, 331-336).
as §1, with “After 24 hours, cells were washed gently with PBS and replaced with fresh culture media. Adherent cells were further cultured with a medium change every 2-3 days until confluence was reached (also see FIG. 11).” left out

CCI mice [2] = test: CCI neuropathic pain model: mechanical allodynia (von Frey) and thermal hyperalgesia (Hargreaves); assay type: in vivo
Description: Adult CD1 mice (male, 25-32 g) were purchased from Charles River Laboratories and used for behavioral studies and primary cultures of BMSCs. Neuropathic pain was produced by chronic constriction injury of the sciatic nerve (CCI) (Bennett, et al. J. Neurosci. 1998, 18, 3059-3072) and spared nerve injury (SNI) (Decosterd, et al. Pain 2000, 87, 149-158). For producing the CCI model animals were anesthetized with isoflurane, the left sciatic nerve was exposed, and three ligatures (7-0 prolene) were placed around the nerve proximal to the trifurcation with one millimeter between each ligature. The ligatures were loosely tied until a short flick of the ipsilateral hind limb was observed. Animals in the sham group received surgery identical to those described but without nerve ligation. Under isoflurane anesthesia, the SNI surgery was also performed with a 5.0 silk tight ligation of the tibial and common peroneal nerves followed by transection and removal of a 3-5 mm nerve portion. However, the third peripheral branch of the sciatic nerve, the sural nerve, remained intact, and any contact or stretch to this nerve was carefully avoided. All the animal procedures performed in this study were approved by the Animal Care Committee of Duke University Medical Center. TGF-β1, […] neutralizing antibody, TNF and CXCL12/SDF-1α were purchased from R&D, LPS from Sigma. AMD3100 (CXCR4 antagonist) and SB431542 (TGF-β1R inhibitor) were purchased from Selleckchem. IL-10 neutralizing antibody was purchased from Biolegend, and normal Rabbit IgG were purchased from Santa Cruz. For intrathecal injection, spinal cord puncture was made with a 30-G needle between the L5 and L6 level to deliver reagents (10 μL) or cells (1 or 2.5×10^5 cells in 10 μL PBS) to the cerebral spinal fluid (Hylden, et al. Eur. J. Pharmacol. 1980, 67, 313-316). […] Cells were then washed three times with PBS and resuspended. Animals were habituated to the testing environment daily for at least 2 days before baseline testing. The room temperature and humidity remained stable for all experiments. All the behaviors were tested blindly. For testing mechanical sensitivity, mice were confined in boxes placed on an elevated metal mesh floor and their hindpaws were stimulated with a series of von Frey hairs with logarithmically increasing stiffness (0.02-2.56 g, Stoelting), presented perpendicularly to the central plantar surface. The 50% paw withdrawal threshold was determined by Dixon's up-down method. Mechanical allodynia after SNI was also assessed by frequency response (expressed as percentage response) to a low-threshold von Frey hair (0.16 g, 10 times). […] The falling latency was recorded and averaged.

small-sized DRG neurons = test: Whole-cell patch clamp recordings of action potentials in whole mount DRG; assay type: cell-based, mice
Experimental: The L4-L5 whole mount DRGs were carefully removed from the vertebral column and placed in cold oxygenated ACSF as detailed in Lee et al. (Cell 2014, 157, 1393-1404). The connective tissue was gently removed under a microscope and the ganglia were digested with a mixture of 1.0 mg/mL protease and 1.6 mg/mL collagenase (Sigma) for 30 min at 37° C. The ganglion was transferred into a holding chamber containing normal Mg2+-free ACSF with CNQX (2 μM) bubbled with 95% O2 and 5% CO2 at room temperature. Whole-cell current clamp recordings were performed at room temperature (28° C.) to measure action potentials with Axopatch-200B amplifier (Axon Instruments). The patch pipettes were pulled from borosilicate capillaries (Chase Scientific Glass Inc.). When filled with the pipette solution, the resistance of the pipettes was 4-5 MΩ. The recording chamber (300 μL) was continuously superfused (3-4 mL/min). Series resistance was compensated for (>80%), and leak subtraction was performed. Data were low-pass-filtered at 2 KHz, sampled at 10 KHz. The pClamp10 (Axon Instruments) software was used during experiments and analysis.

[3] = system: lamina IIo neurons of spinal cord slices; test: Patch-clamp recordings of sEPSCs in spinal cord slices; assay type: cell-based, mice
Experimental: A portion of the lumbar spinal cord (L4-L5) was removed from mice (4-7 weeks old) under urethane anesthesia (1.5-2.0 g/kg, i.p.) and kept in pre-oxygenated ice-cold Krebs solution (Xu, et al. Ann. Neurol. 2013, 74, 490-495). Transverse slices (400-600 μm) were cut on a vibrating microslicer. The slices were perfused with Kreb's solution (8-10 mL/min) that was saturated with 95% O2 and 5% CO2 at 36° C. for at least 1-3 h prior to experiment. The Kreb's solution contained (in mM): NaCl 117, KCl 3.6, CaCl2 2.5, MgCl2 1.2, NaH2PO4 1.2, NaHCO3 25, and […]. The whole-cell patch-clamp recordings were made from lamina IIo neurons in voltage-clamp mode. Patch pipettes were fabricated from thin-walled, borosilicate, glass-capillary tubing (1.5 mm outer diameter; World Precision Instruments). After establishing the whole-cell configuration, neurons were held their holding potentials at −70 mV for recording sEPSCs. The resistance of a typical patch pipette is 5-10 M. The internal solution contained the following (in mM): 135 potassium gluconate, 5 KCl, 0.5 CaCl2, 2 MgCl2, 5 EGTA, 5 HEPES, and 5 ATP-Mg. Membrane currents were amplified with an Axopatch 200 A amplifier (Molecular Devices) in voltage-clamp mode. Signals were filtered at 2 kHz and digitized at 5 kHz. Data were stored with a personal computer using pClamp 6 software and analyzed with Mini Analysis (Synaptosoft).

[4] = system: PAX-induced mechanical allodynia in mice; test: Paclitaxel (PAX)-induced neuropathic pain model: paw withdrawal frequency to von Frey hair (0.4 g); assay type: in vivo; details: i.t. TGF-β1 100 ng, 7 weeks after first paclitaxel injection
Experimental: PAX-induced neuropathic pain (mechanical allodynia) was evaluated by paw withdrawal frequency to von Frey hair (0.4 g) stimuli (10×). Intrathecal BMSCs (2.5×10^5) produced a rapid (1 week) and long lasting (7 weeks) reduction in PAX-induced mechanical allodynia (FIG. 19B).
The analgesic efficacy of TGF-β1 was also tested in a PAX-induced neuropathic pain model. […] PAX-induced neuropathic pain was evaluated by paw withdrawal frequency to von Frey hair (0.4 g) stimuli (10×). Intrathecal TGF-β1 transiently reversed PAX-induced mechanical allodynia for 3 hours following injection (FIG. 20).

c1cc(CN2CCCNCCNCCCNCC2)ccc1CN1CCCNCCNCCCNCC1 [AMD3100]
CXCL12-induced migration of BMSCs (BMSCs; AMD3100 5 mg/L 30 min): blocked

Clc1cccc(Cl)c1N=C1NCCN1 [clonidine]
time in chamber paired with drug versus chamber paired with vehicle (CPP) (CCI mice [1]): spent more time

CXCL12: chemokine, ligand of CXCR4, purchased from R&D
migration of BMSCs in vitro (BMSCs; CXCL12 0-100 ng/ml): induced migration

TNF-α
IL-10 release of BMSCs on exposure (increase) (IL-10): not
TGF-β1 release of BMSCs on exposure (TGF-β1): significantly increased

NC(=O)c1ccc(-c2nc(-c3ccc4c(c3)OCO4)c(-c3ccccn3)[nH]2)cc1 [SB431542, reference compound]
effect on the anti-allodynic and anti-hyperalgesic effects of TGF-β1 (10 ng) (CCI mice [2]; SB431542 100 pmol i.t., CCI mice): eliminated
effect on the TGF-β1 suppression of spike frequency (small-sized DRG neurons; SB431542 10 μM): reversed
effect on the TGF-β1 (10 ng/mL) blockade of sEPSC increases ([3]; SB431542 10 μM): abrogated

TGF-β1: exogenous recombinant TGF-β1 purchased from R&D, given intrathecally or superfused
late-phase neuropathic pain on post-CCI day 21 (CCI mice [2]; i.t. TGF-β1): effectively inhibited
mechanical allodynia and thermal hyperalgesia at 5 days after CCI (CCI mice [2]; i.t. TGF-β1 2 ng and 10 ng): dose-dependently inhibited
time after which the reversal of allodynia/hyperalgesia recovered (CCI mice [2]; i.t. TGF-β1 2 and 10 ng, 5 days after CCI): 24 h
CCI-induced increase in spike frequency in small-sized DRG neurons (small-sized DRG neurons; TGF-β1 2 or 10 ng/mL): dose-dependently suppressed
time to suppression of the spike frequency increase (small-sized DRG neurons; TGF-β1 2 or 10 ng/mL): 2 to 5 min
duration of reversal of PAX-induced mechanical allodynia following injection [4]: 3 h
sEPSC frequency and amplitude in sham mice ([3]; superfusion 10 ng/mL): no effects
time to blockade of CCI-induced sEPSC increases ([3]; superfusion 2 or 10 ng/mL): 2 min
CCI-induced increases in sEPSC frequency and amplitude ([3]; superfusion 2 or 10 ng/mL, slices from CCI mice (4 d)): blocked
